Assay results as given in US6465205B2, “In vitro cell culture device including cartilage and methods of using the same” (The Research Foundation of State University of New York, priority 1999, dated 2002).

Key:
[1] = system: matrix metalloproteinases (MMP-2, MMP-9) in chondrocyte-conditioned medium; assay: Gelatin zymography for MMP activity; type: biochemical, bovine or porcine
Procedure: Cell viability and number were determined by Trypan blue staining and counting using a hemocytometer. Chondrocytes were plated on collagen inserts (Costar Transwell, VWR, Pittsburgh, Pa.) at 20-40×10^6 cells/well in DMEM/F12 containing antibiotics, 10% FBS, and 50 μg/ml ascorbic acid (prepared fresh and added every other day). After the chondrocytes had formed a layer of extracellular matrix (approximately 2 weeks), the medium was switched to serum free (DMEM/F12 with antibiotics, 5 μg/ml insulin, 15 μg/ml bovine pituitary extract, 10 μg/ml epidermal growth factor, 5 μg/ml transferrin, 1 μM hydrocortisone, 10^−8 M retinol, and ascorbic acid). Cultures were fed from the bottom every 3-4 days. Medium was collected from chondrocyte cultures on days 3, 5, 7, 10, and 14 after switching from 10% FBS-containing medium to SFM. […]
CCM or SFM, obtained as described above, was mixed with 2× sample buffer (20 mM DTT, 4% SDS, 50 mM Tris, 20% glycine, 0.002% Bromophenol blue), loaded without prior heating, and electrophoresed under non-reducing conditions at 4° C. for approximately 4 hours under constant voltage. […] Gels were rinsed twice with distilled water then stained for 1 hour in Coomassie blue stain, followed by destaining in water/methanol/acetic acid (6:3.5:0.5) until clear areas of enzyme activity were detected against a blue background. […]

[2] = system: respiratory epithelial cells; assay: Proliferation of respiratory epithelial cells (cell number by hemocytometer count); type: cell-based, porcine
Procedure: Porcine tracheal tissue obtained at necropsy was cleaned of debris, rinsed thoroughly with PBS, and epithelium and submucosa removed and soaked overnight at 4° C. in MEM containing antibiotics/antimycotics. Dissociated respiratory epithelial cells were isolated using elastase digestion as described by Hicks et al. (“Rapid Isolation of Upper Respiratory Epithelial Cells,” Mol. Biol. Cell., 5(Suppl.): 118a (Abstract), (1995); Hicks et al., “Isolation and Characterization of Basal Cells from Human Upper Respiratory Epithelium,” Exp. Cell Res. 237:357-363 (1997), which are hereby incorporated by reference) and plated on top of type I collagen-coated 35 mm petri dishes at 0.2×10^6 cells/cm^2 in serum free medium. In selected experiments, cells were cultured in Biocoat type I collagen-coated 24 well plates. Medium was collected for gelatin zymography as described above.
The proliferative effects of CCM on REC were assessed by addition of CCM diluted 1:1 with SFM. REC cultures grown on type I collagen were fed 0.1 ml CCM or control SFM daily, and media were changed completely every 3 days. […] After incubation at 37° C. for 20 minutes, REC were again washed with PBS/10% FBS, then resuspended in PBS and an aliquot counted using Trypan blue dye exclusion to determine viability and cell number. […]

Row | Structure (SMILES) | MMP enzyme activity on zymogram developed in presence of chelator ([1]; developing buffer containing 20 mM EDTA (FIG. 5B)) | Effect on REC proliferation ([2]; 5 nM, REC cultured with or without CCM, cell number after 7 days) | Restoration of REC proliferation to control levels ([2]; concentrations of 10 and 50 W, in presence of CCM (FIG. 8)) | Block of MMP (marker protein) activity in pooled CCM by gelatin zymography ([1]; 5 nM, medium of day 3 and day 7 (FIGS. 7A-B))
1 | O=C(O)CN(CCN(CC(=O)O)CC(=O)O)CC(=O)O [EDTA, ethylenediamine tetraacetic acid] | enzyme activity was abolished | – | – | –
2 | CNC(=O)[C@H](Cc1c[nH]c2ccccc12)NC(=O)[C@@H](CC(=O)NO)CC(C)C [GM6001] | – | nor was proliferation positively affected | proliferation was not restored to control levels | did not block marker protein activity
